From patent US20250018019A1, “TREATMENT OF INTERFERON DRIVEN INFLAMMATION” (The Provost, Fellows, Foundation Scholars and the other …, priority 2023, published 2025) come the findings set out here.

Structures can show the parent of a compound that is named as a salt.

In assay [1] the test system is BMDMs. Description: LC-MS steady-state metabolomics / fumarate levels in BMDMs. Conditions: LPS 4 h; for ratios of ATP/ADP, ATP/AMP, and P-creatine/creatine: BMDMs pre-treated 3 h (FHIN1 10 or 20 μM, DMF 25 μM). It is filed as cell-based, mouse. As to the method: (§1) All compounds used DMSO as a vehicle except for 4-hydroxy tamoxifen (EtOH), NAC (PBS), and AOAA for tracing experiments (Media). LPS was used at a concentration of 100 ng/ml for indicated timepoints (2, 3, 4, 6, 8, 24, 48 h). FHIN1 (10 or 20 μM), MMF (50 or 100 μM), DMF (25 μM), AOAA (5 mM), oligomycin (10 μM), CCCP (50 μM) NAC (1 mM), and IMT1 (10 μM) pre-treatments were performed for 3 h prior the addition of LPS. Cells were treated with valinomycin (10 nM) 15 mins before LPS stimulation. Anti-CD210 or IgG control (10 μg/ml) antibodies were added to cells 1 h prior to LPS stimulation. Recombinant mouse IL-10 protein (100 ng/ml) was added to cells at the same time as LPS. Cells were treated with IFN-B1 (220 ng/ml) for 3 h. Cells were treated with C-178 (1 μM) 1 h prior to LPS stimulation or transfection with 2′3′-cGAMP (1.5 μg/ml) for 4 hrs to achieve cGAS-STING activation. Cells were treated with ODN 2088 (1 μM) for 1 hr prior to LPS stimulation or transfection with CPG ODN 1826 (1.5 μg/ml) to achieve TLR9 activation. 3 different timepoints of 4-hydroxy tamoxifen (TAM) (600 nM or 2 μM) or EtOH treatment were performed-these are specified in the individual figure legends. For ‘48 h’ treatments EtOH/TAM was added on day 5 of 6 during the BMDM differentiation protocol. On day 6 they were plated with EtOH/TAM (left overnight) and treated the following day. For ‘72 h’ treatments EtOH/TAM was added on day […] of 6 during the BMDM differentiation protocol. On day 6 they were plated with EtOH/TAM (left overnight) and treated the following day. For ‘96 h’ treatments EtOH/TAM was added on day […] of 6 during the BMDM differentiation protocol. On day 6 they were plated with EtOH/TAM and treated 2 days later.
BMDMs (3 independent mice) were plated at 0.5×10^6 cells/well in 12-well plates in technical triplicate per condition, treated as indicated, snap frozen and stored at −80° C. For metabolomics on cytosolic fraction, BMDMs were plated at 10×10^6 cells/10 cm dish and rapid fractionation was performed as previously reported^16. Metabolite extraction solution (MES) (methanol/acetonitrile/water, 50:30:20 v/v/v) was added (0.5 mL per 1×10^6 cells) and samples were incubated for 15 min on dry ice. The resulting suspension was transferred to ice-cold microcentrifuge tubes. Samples were agitated for 20 min at 4° C. in a thermomixer and then incubated at −20° C. for 1 h. Samples were centrifuged at maximum speed for 10 min at 4° C. The supernatant was transferred into a new tube and centrifuged again at maximum speed for 10 min at 4° C. The supernatant was transferred to autosampler vials and stored at −80° C. prior to analysis by LC-MS.
HILIC chromatographic separation of metabolites was achieved using a Millipore Sequant ZIC-PHILIC analytical column (5 μm, 2.1×150 mm) equipped with a 2.1×20 mm guard column (both […] particle size) with a binary solvent system. Solvent A was 20 mM ammonium carbonate, 0.05% ammonium hydroxide; Solvent B was acetonitrile. The column oven and autosampler tray were held at 40° C. and 4° C., respectively. The chromatographic gradient was run at a flow rate of 0.200 mL/min as follows: 0-2 min: 80% B; 2-17 min: linear gradient from 80% B to 20% B; 17-17.1 min: linear gradient from 20% B to 80% B; 17.1-22.5 min: hold at 80% B. Samples were randomized and analysed with LC-MS in a blinded manner and the injection volume was 5 μl. Pooled samples were generated from an equal mixture of all individual samples and analysed interspersed at regular intervals within sample sequence as a quality control. Metabolites were measured with a Thermo Scientific Q Exactive Hybrid Quadrupole-Orbitrap Mass spectrometer (HRMS) coupled to a Dionex Ultimate 3000 UHPLC or with Vanquish Horizon UHPLC coupled to an Orbitrap Exploris 240 mass spectrometer (both Thermo Fisher Scientific) via a heated electrospray ionization source. […]

Assay [2] relates to BMDMs. Nature of the assay: ELISA of cytokine release from BMDMs. Conditions: for IL-6 release / IL-10 release / TNF-α release: BMDMs pre-treated 3 h. It is filed as cell-based, mouse. Here is the method:
as §1
Pre-designed silencer select siRNAs for Cgas (s103166), Tmem173 (s91058), Tlr3 (s100579), Tlr9 (s96268), As/(s99640), Tlr7 (s100720), Ddx58 (s106376), Ifih1 (s89787), Nrf2 (s70522), Atf4 (s62689) and negative control (4390843) were ordered from Thermo Fisher. siRNA sequences are given in Table S2. Cells were transfected with 50 nM siRNA using 5 μl lipofectamine RNAiMAX according to manufacturer's instructions (Thermo Fisher). Cells were transfected in medium without serum and antibiotics which was replaced with complete medium 8 hours later. Cells were subsequently left for at least a further 12 hours prior to treatment.
BMDMs were plated in the presence or absence of ultrapure ethidium bromide (100 ng/ml) and incubated for a further 6 days prior to treatment. Depletion of mtDNA was determined by genomic DNA isolation followed by qPCR using primers specific for areas of mitochondrial DNA (D-loop) and areas of mtDNA that are not inserted into nuclear DNA (Non-NUMT).
DuoSet ELISA kits for IL-1β, TNFα, IL-6, IL-10, and GDF15 were purchased from R&D Systems and were carried out according to the manufacturer's instructions with appropriately diluted cell supernatants added to each plate in duplicate or triplicate. IFN-β was determined using DuoSet ELISA kit from R&D Systems or Abcam (ab252363). Quantikine ELISA kit for IFN-β (R&D Systems) was used for determination of IFN-β concentration in serum samples and from human cells, and these were also carried out according to the manufacturer's instructions. Absorbance at 450 nm was quantified using a FLUOstar Optima plate reader. Corrected absorbance values were calculated by subtracting the background absorbance, and cytokine concentrations were subsequently obtained by extrapolation from a standard curve plotted on GraphPad Prism 9.2.0.
For orientation: In an ELISA, binding on a coated surface is turned into a signal by an enzyme label.

With `COC(=O)/C=C/C(=O)OC` [DMF, dimethyl fumarate], the “ratios of ATP/ADP, ATP/AMP, and P-creatine/creatine” value with BMDMs [1] was “no effect”. In the assay with BMDMs [2] (LPS 4 h), the IL-6 release result is recorded as “reduced”, the IL-10 release entry is given as “decreased” and the TNF-α release entry is reported as “increased”.
In the case of `CCOC(=O)[C@@]12CCCC=C1N(Cc1ccc(-c3ccccc3)cc1)C(=O)[C@H]2CC(=O)NC` [FHIN1, Fumarate hydratase-IN-1], the “ratios of ATP/ADP, ATP/AMP, and P-creatine/creatine” value in the assay on BMDMs [1] was “reduced”. Moreover, in the assay with BMDMs [1] (BMDMs pre-treated 3 h), the GSSG/GSH ratio result is recorded as “unchanged”; the “TCA cycle metabolites including citrate, aconitate, itaconate and succinate” value is “alterations”; the aconitate/citrate ratio result was “decreased”; the “fumarate and 2SC accumulation” value is given as “enhanced”. Besides, in the assay on BMDMs [1] (BMDMs pre-treated 3 h), the “glyceraldehyde 3-phosphate (G3P)/2/3-phosphoglycerate (2/3-PG) ratio” value is listed as “increased” and the total glutathione entry is “depletion”. Moreover, in the assay on BMDMs [2] (LPS 4 h), the IL-6 release entry is recorded as “reduced”, the IL-10 release entry is given as “decreased” and the TNF-α release result was “increased”. Also, in the assay on BMDMs [2] (BMDMs pre-treated, LPS 4 h), the GDF15 release result is given as “drove GDF15 release” and the “LPS-induced IFN-β release” value is recorded as “increase”. Also, the TNF-α production result in the assay on BMDMs [2] (BMDMs pre-treated, co-treated with recombinant IL-10 100 ng/ml, LPS 4 h) is on record as “failed to impair STAT3 phosphorylation or augment TNF-α production”. Moreover, in the assay with BMDMs [2] (BMDMs treated with EtBr 100 ng/ml 6 days (mtDNA depletion), then FHIN1, LPS 4 h), the “LPS-induced IFN-β release in the presence of EtBr” value is listed as “no longer boosted”. In the assay on BMDMs [2] (BMDMs, siRNA 50 nM, LPS 4 h), the “augmentation in IFN-β release with knockdown of Tlr3” value is “did not affect” and the “boost in IFN-β release with silencing of Tlr7, Ddx58 (RIG-I) or Ifih1 (MDA5)” value was “abrogated”.
